Assay results reported in ChEMBL document CHEMBL5154666, “Small molecules with tetrahydroquinoline-containing Povarov scaffolds as inhibitors disrupting the Protein-RNA interaction of LIN28-let-7” (Eur J Med Chem, 2022).

Columns and labels:
JAR = assay: Antiproliferative activity against human JAR cells assessed as reduction in cell viability at 10 uM by MTT assay; format: functional
[1] = Inhibition of Cy3-labeled mouse preE-let-7f-1 miRNA binding to human LIN28A (16 to 187 residues) expressed in Escherichia coli BL21 (DE3) at 75 uM preincubated for 2 hrs followed by miRNA addition and measured after 15 mins by electrophoretic mobility shift assay relative to control
[2] = Inhibition of Cy3-labeled mouse preE-let-7f-1 miRNA binding to human LIN28A (16 to 187 residues) expressed in Escherichia coli BL21 (DE3) preincubated for 2 hrs followed by miRNA addition and measured after 15 mins by electrophoretic mobility shift assay
[3] = Inhibition of FAM-labeled mouse preE-let-7f-1 miRNA binding to human LIN28A (16 to 187 residues) expressed in Escherichia coli BL21 (DE3) by fluorescence polarization assay
[4] = Inhibition of FAM-labeled mouse preE-let-7f-1 miRNA binding to human LIN28A (16 to 187 residues) expressed in Escherichia coli BL21 (DE3) preincubated for 30 mins followed by miRNA addition by fluorescence polarization assay

| Compound | inhibition at 10 µM (JAR) | inhibition [1] | also measured |
| --- | --- | --- | --- |
| CCOc1cccc2c1N[C@@H](c1ccc(C(=O)O)cc1)[C@H]1CC=C[C@@H]21 | < 10% | 53% | IC50 [2]: 41.6 µM; IC50 [3]: 50 µM |
| COc1cc2c(c(OC)c1OC)[C@@H]1C=CC[C@@H]1[C@H](c1ccc(C(=O)O)cc1)N2 | – | < 5% | – |
| CC(C)Oc1cccc2c1N[C@@H](c1ccc(C(=O)O)cc1)[C@H]1CC=C[C@@H]21 | – | < 5% | – |
| CCOc1cccc2c1N[C@@H](c1cccc(O)c1)[C@H]1CC=C[C@@H]21 | – | < 5% | – |
| CCOC(=O)[C@@H]1Nc2c(OCC)cccc2[C@@H]2C=CC[C@H]12 | – | < 5% | – |
| COc1cccc2c1N[C@@H](c1ccc(C(=O)O)cc1)[C@H]1CC=C[C@@H]21 | – | < 5% | – |
| O=C(O)c1ccc([C@@H]2Nc3c(Cl)cc(Cl)cc3[C@@H]3C=CC[C@@H]32)cc1 | – | 34% | – |
| CCOc1cccc2c1N(C(C)=O)[C@@H](c1ccc(C(=O)O)cc1)[C@H]1CCCN(C(=O)OC(C)(C)C)[C@@H]21 | 35% | – | – |
| O=C(O)c1cccc([C@@H]2Nc3c(OC(F)(F)F)cccc3[C@@H]3C=CC[C@@H]32)c1 | 20% | – | – |
| CCOc1cccc2c1N[C@@H](c1ccc(C(=O)O)[nH]1)[C@H]1CC=C[C@@H]21 | 23% | – | – |
| CCOc1cccc2c1N(C(C)=O)[C@@H](c1cccc(C(=O)O)c1)[C@H]1CC=C[C@@H]21 | 31% | – | – |
| CCOc1cccc2c1N(C(C)=O)[C@@H](c1ccc(C(=O)O)cc1)[C@H]1CCCN[C@@H]21 | 19% | – | – |
| N#Cc1ccc2c(c1)[C@@H]1C=CC[C@@H]1[C@H](c1ccc(C(=O)O)cc1)N2 | – | < 5% | – |
| CCOc1cccc2c1N[C@H](c1ccc(C(=O)O)cc1)[C@@H]1CC=C[C@H]21 | – | – | IC50 [3]: 40 µM |
| CCOc1cccc2c1N[C@@H](C(=O)O)[C@H]1CC=C[C@@H]21 | < 10% | 86% | IC50 [2]: 21.5 µM |
| CC(=O)c1ccc2c(c1)N[C@@H](c1ccc(C(=O)O)cc1)[C@H]1CC=C[C@@H]21 | – | < 5% | – |
| CCOc1cccc2c1N[C@@H](c1ccc(C(=O)OC)cc1)[C@H]1CC=C[C@@H]21 | – | < 5% | – |
| CCOc1cccc2c1N[C@@H](c1ccc([N+](=O)[O-])cc1)[C@H]1CC=C[C@@H]21 | – | < 5% | – |
| CCOc1cccc2c1N[C@@H](c1cccnc1)[C@H]1CC=C[C@@H]21 | – | < 5% | – |
| CCOc1cccc2c1N[C@@H](c1cccc(C(=O)O)c1)[C@H]1CC=C[C@@H]21 | < 10% | 86% | IC50 [4]: 4 µM; IC50 [2]: 21.9 µM |
| CCOc1cccc2c1N[C@@H](c1ccc(C#N)cc1)[C@H]1CC=C[C@@H]21 | – | < 5% | – |
| CC(=O)c1ccc2c(c1)[C@@H]1C=CC[C@@H]1[C@H](c1ccc(C(=O)O)cc1)N2 | – | < 5% | – |
| CCOc1cccc2c1N[C@@H](c1ccc(C(F)(F)F)cc1)[C@H]1CC=C[C@@H]21 | – | < 5% | – |
